Source: patent US8623914B2, “Medical composition” (TSUMURA & Co., priority 2011, dated 2014)

What was measured:
Parameters in all cases: species or system rat
[1] = system: intestinal peristaltic motility; test: Test 2: peristaltic motility, combinations of HAS with 6-S or 6-G, same manner as Test 1; settings: for AUC (area under curve peak) / Mean-PPA (mean of peak pressure amplitude) / PF (peak frequency): value before addition = 100%; for enhancement of the prokinetic effect on peristaltic motility by combining with HAS (in words): combined with HAS at a dose too low to exert the effect when used alone
Procedure: (§1) Normal rats which fasted overnight with free access to water were decapitated for mercy killing. Immediately, the intestine was removed and cut into 3-4 cm pieces, which were used as test samples. The removed test samples were immersed in an organ bath (perfusion rate: 3.5 mL/min) filled with a Krebs solution warmed at 32-33° C. and saturated with 95% O2/5% CO2 gas mixture. […] From the mouth side, physiological saline was injected at a certain rate (0.15 mL/min), and the frequency and amplitude of the pressure change in the lumen caused by the intestinal peristaltic motility were measured by means of a microchip pressure transducer (SPR-524, Millar Instruments Co.). After confirmation of the stabilized peristaltic motility in the test samples (intestinal tract), a test drug was added to the organ bath. Before and after the addition, the change of peristaltic motility for 10 minutes was determined by using recorded wave profile for the mean peak pressure amplitude (mean-PPA), the area under curve (AUC) of the peak and the peak frequency (PF) in the transducer. The resulting recorded wave profile was converted into numerical terms as the amplitude or frequency of the peristaltic motility by an analysis software. The value before the addition of the test drug was regarded as 100% for comparison and evaluation.
On the basis of the prokinetic effect of HAS, 6-S and 6-G on peristaltic motility in Test 1, the change of the prokinetic effect in a combination of these compounds was investigated in the same manner as in Test 1.

[2] = system: large intestinal peristaltic motility; test: Test 1: action of each Daikenchuto component on peristaltic motility of the isolated intestine in an organ bath; settings: for AUC (area under curve peak) / Mean-PPA (mean of peak pressure amplitude) / PF (peak frequency): value before addition = 100%
Procedure: Investigation of the Action of Each Crude Drug Component Contained in Daikenchuto on the Large Intestinal Peristaltic Motility:
Rats were used as experimental animals. According to the following way, the components contained in Daikenchuto, i.e., HAS, 6-shogaol (hereinafter abbreviated as “6-S”) and 6-gingerol (hereinafter abbreviated as “6-G”), were tested for the action on the peristaltic motility.
Male SD rats (provided by Japan Charles River Co.; SPF animals) were obtained at 6 weeks of age (body weight: 190-220 g) and the test was started at 7-9 weeks of age (body weight: 220-280 g at acquisition and using). Breeding was conducted at a temperature of 20-26° C. and a humidity of 35-75%, in aeration frequency of 15-25/hour in a cage under lighting for 12 hours (7 o'clock to 19 o'clock) per day, wherein 4 rats were placed in a cage. For feeding, solid feed MF (Oriental Yeast Co., Ltd.) was used, and the rats were able to freely drink ordinary tap water (Amimachi, Ibaraki Pref).
as §1

[3] = system: intestinal peristaltic motility; test: Test 4: peristaltic motility, HAS and bethanechol chloride alone and combined, same manner as Test 1; settings: for AUC (area under curve peak) / Mean-PPA (mean of peak pressure amplitude) / PF (peak frequency): value before addition = 100%
Procedure: as §1, with “After confirmation of the stabilized peristaltic motility in the test samples (intestinal tract), a test drug was added to the organ bath. Before and after the addition, the change of peristaltic motility for 10 minutes was determined by using recorded wave profile for the mean peak pressure amplitude (mean-PPA), the area under curve (AUC) of the peak and the peak frequency (PF) in the transducer.” left out

[4] = system: intestinal peristaltic motility; test: Test 3: peristaltic motility, HAS and CAP alone and combined, same manner as Test 1; settings: for AUC (area under curve peak) / Mean-PPA (mean of peak pressure amplitude) / PF (peak frequency): value before addition = 100%
Procedure: as §1
The respective prokinetic effect of HAS and CAP on peristaltic motility and change of the effect in a combination of these compounds were investigated in the same manner as in Test 1.

[5] = HAS 3 μM + CAP 0.03 μM versus CAP alone

Question: With `CCCCC[C@H](O)CC(=O)CCc1ccc(O)c(OC)c1` [6-G, 6-gingerol] as the molecule, how does the “AUC (area under curve peak)” value ([1]; 3 μM) read?
Answer: The value was 174.9%.

Question: And the “Mean-PPA (mean of peak pressure amplitude)” value (“Mean-PPA” below) ([1]; 3 μM)?
Answer: The value was 235.8%.

Question: And the “PF (peak frequency)” value ([1]; 3 μM)?
Answer: Its value is 102.9%.

Question: And the “enhancement of the prokinetic effect on peristaltic motility by combining with HAS (in words)” value [1]?
Answer: The value was “potent enhancement”.

Question: And the “prokinetic effect on peristaltic motility (in words)” value ([2]; 1 μM)?
Answer: Its value is “weak prokinetic effect”.

Question: What about the “AUC (area under curve peak)” value ([2]; 1 μM) of the same molecule?
Answer: Its value is 120.5%.

Question: And the “Mean-PPA” value ([2]; 1 μM)?
Answer: The value was 141.1%.

Question: And the “PF (peak frequency)” value ([2]; 1 μM)?
Answer: The value was 115.0%.

Question: What about the “prokinetic effect on peristaltic motility (in words)” value ([2]; 10 μM) of the same molecule?
Answer: The value was “significant prokinetic effect”.

Question: And the “AUC (area under curve peak)” value ([2]; 10 μM)?
Answer: Its value is 188.2%.

Question: And the “Mean-PPA” value ([2]; 10 μM)?
Answer: Its value is 304.2%.

Question: What about the “PF (peak frequency)” value ([2]; 10 μM) of the same molecule?
Answer: The value was 76.9%.

Question: `CCCCC/C=C/C(=O)CCc1ccc(O)c(OC)c1` [6-S, 6-shogaol] was tested. Which “AUC (area under curve peak)” value ([1]; 1 μM) did it give?
Answer: The value was 133.3%.

Question: And the “Mean-PPA” value ([1]; 1 μM)?
Answer: The value was 202.6%.

Question: What about the “PF (peak frequency)” value ([1]; 1 μM) of the same molecule?
Answer: The value was 115.0%.

Question: And the “enhancement of the prokinetic effect on peristaltic motility by combining with HAS (in words)” value [1]?
Answer: Its value is “potent enhancement”.

Question: And the “prokinetic effect on peristaltic motility (in words)” value ([2]; 1 μM)?
Answer: The value was “promoted weakly”.

Question: And the “AUC (area under curve peak)” value ([2]; 1 μM)?
Answer: The value was 133.3%.

Question: And the “Mean-PPA” value ([2]; 1 μM)?
Answer: The value was 202.6%.

Question: What about the “PF (peak frequency)” value ([2]; 1 μM) of the same molecule?
Answer: Its value is 102.6%.

Question: What about the “prokinetic effect on peristaltic motility (in words)” value ([2]; 10 μM) of the same molecule?
Answer: The value was “prokinetic effect disappeared”.

Question: And the “AUC (area under curve peak)” value ([2]; 10 μM)?
Answer: Its value is 73.4%.

Question: And the “Mean-PPA” value ([2]; 10 μM)?
Answer: The value was 94.6%.

Question: And the “PF (peak frequency)” value ([2]; 10 μM)?
Answer: Its value is 120.8%.

Question: `CC(C[N+](C)(C)C)OC(N)=O` (centres unmarked) [Beth, bethanechol chloride] was tested. Which “AUC (area under curve peak)” value ([3]; 1 μM) did it give?
Answer: Its value is 87.6%.

Question: What about the “Mean-PPA” value ([3]; 1 μM) of the same molecule?
Answer: Its value is 98.9%.

Question: And the “PF (peak frequency)” value ([3]; 1 μM)?
Answer: Its value is 153.8%.

Question: Which “AUC (area under curve peak)” value ([4]; 0.03 μM) does the source give for `COc1cc(CNC(=O)CCCC/C=C/C(C)C)ccc1O` [CAP, capsaicin] here?
Answer: The value was 147.1%.

Question: And the “Mean-PPA” value ([4]; 0.03 μM)?
Answer: The value was 143.7%.

Question: What about the “PF (peak frequency)” value ([4]; 0.03 μM) of the same molecule?
Answer: Its value is 108.1%.

Question: Which “AUC (area under curve peak)” value ([4]; 3 μM) does the source give for `C/C=C/C=C/C=C\CC/C=C/C(=O)NCC(C)(C)O` [HAS, Hydroxy-α-sanshool] here?
Answer: Its value is 110.2%.

Question: What about the “Mean-PPA” value ([4]; 3 μM) of the same molecule?
Answer: Its value is 105.7%.

Question: And the “PF (peak frequency)” value ([4]; 3 μM)?
Answer: The value was 98.7%.

Question: And the “enhancement by HAS of the increase in AUC induced by CAP” value [4, 5]?
Answer: Its value is roughly 4.6 times.

Question: And the “enhancement by HAS of the increase in PPA induced by CAP” value [4, 5]?
Answer: The value was “about 9.8 times”.

Question: And the “AUC (area under curve peak)” value ([1]; 3 μM)?
Answer: The value was 99.0%.

Question: And the “Mean-PPA” value ([1]; 3 μM)?
Answer: The value was 101.2%.

Question: And the “PF (peak frequency)” value ([1]; 3 μM)?
Answer: The value was 93.0%.

Question: What about the “AUC (area under curve peak)” value ([3]; 3 μM) of the same molecule?
Answer: Its value is 130.6%.

Question: And the “Mean-PPA” value ([3]; 3 μM)?
Answer: Its value is 105.2%.

Question: And the “PF (peak frequency)” value ([3]; 3 μM)?
Answer: Its value is 84.6%.

Question: What about the “enhancement by HAS of the increase in PF induced by Beth” value ([3]; HAS 3 μM + Beth 1 μM versus Beth alone) of the same molecule?
Answer: The value was “twice or more”.

Question: What about the “prokinetic effect on peristaltic motility (in words)” value ([2]; 3 μM) of the same molecule?
Answer: The value was “no influence”.

Question: And the “AUC (area under curve peak)” value ([2]; 3 μM)?
Answer: The value was 121.5%.

Question: And the “Mean-PPA” value ([2]; 3 μM)?
Answer: The value was 119.5%.

Question: And the “PF (peak frequency)” value ([2]; 3 μM)?
Answer: The value was 98.3%.

Question: What about the “prokinetic effect on peristaltic motility (in words)” value ([2]; 10 μM) of the same molecule?
Answer: The value was “very strong prokinetic effect”.

Question: What about the “AUC (area under curve peak)” value ([2]; 10 μM) of the same molecule?
Answer: Its value is 227.9%.

Question: And the “Mean-PPA” value ([2]; 10 μM)?
Answer: Its value is 478.2%.

Question: What about the “PF (peak frequency)” value ([2]; 10 μM) of the same molecule?
Answer: Its value is 52.5%.
